Data from patent publication US11802120B2, “Fused cyclic urea derivatives as CRHR2 antagonist” (RaQualia Pharma Inc., priority 2018, dated 2023).

Molecular target: T1, human CRHR2-alpha (Homo sapiens, UniProt Q13324)
T1 sequence (Q13324 1-411): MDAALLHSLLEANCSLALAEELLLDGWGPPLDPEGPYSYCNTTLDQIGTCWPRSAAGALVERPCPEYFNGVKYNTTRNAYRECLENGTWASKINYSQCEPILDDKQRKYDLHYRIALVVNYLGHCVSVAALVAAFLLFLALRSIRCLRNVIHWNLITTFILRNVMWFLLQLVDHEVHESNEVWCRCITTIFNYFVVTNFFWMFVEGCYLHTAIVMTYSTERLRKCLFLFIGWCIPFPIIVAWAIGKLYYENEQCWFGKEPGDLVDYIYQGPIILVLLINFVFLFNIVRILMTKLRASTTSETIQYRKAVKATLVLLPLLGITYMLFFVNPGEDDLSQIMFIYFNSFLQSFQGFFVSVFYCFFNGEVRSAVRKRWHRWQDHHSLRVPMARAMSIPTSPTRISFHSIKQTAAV
Assay: cAMP functional assay for human CRHR2 (LANCE Ultra cAMP, TR-FRET)
Type: cell-based
Conditions: CHO-K1 cells expressing human CRHR2-alpha, agonist human urocortin2 at EC80, cAMP; read-out: IC50 against CRHR2
Procedure, shortened: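 CHO-K1 stable lines; 4,000 cells/well; compound 30 min, 25° C; EC80 agonist (human urocortin2 → CRHR2, CRF → CRHR1) 30 min, 25° C; buffer HBSS/0.1% BSA/0.5 mM IBMX/5 mM Hepes pH 7.4; Eu-cAMP tracer + ULight antibody 60 min; TR-FRET read; IC50 from % inhibition curves.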

| IC50 | SMILES |
| --- | --- |
| < 300 nM | O=C(N[C@H]1CC[C@H](Cn2c(=O)n(-c3cccc(-c4cn[nH]c4)c3)c3ccccc32)CC1)c1cc(Cl)cnc1C(F)F [Example 697, N-((1r,4r)-4-((3-(3-(1H-pyrazol-4-yl)phenyl)-2-oxo-2,3-dihydro-1H-benzo[d]imidazol-1-yl)methyl)cyclohexyl)-5-chloro-2-(difluoromethyl)nicotinamide] |
| < 300 nM | Cn1cc(-c2cc(-n3c(=O)n(C[C@H]4CC[C@H](NC(=O)c5cc(Cl)cnc5C(F)F)CC4)c4ccccc43)ccn2)cn1 [Example 699, 5-chloro-2-(difluoromethyl)-N-((1r,4r)-4-((3-(2-(1-methyl-1H-pyrazol-4-yl)pyridin-4-yl)-2-oxo-2,3-dihydro-1H-benzo [d]imidazol-1-yl)methyl)cyclo-hexyl)nicotinamide] |
| < 300 nM | Cn1ccc(-c2cccc(-n3c(=O)n(C[C@H]4CC[C@H](NC(=O)c5cc(Cl)cnc5C(F)F)CC4)c4ccccc43)c2)n1 [Example 700, 5-chloro-2-(difluoromethyl)-N-((1r,4r)-4-((3-(3-(1-methyl-1H-pyrazol-3-yl)phenyl)-2-oxo-2,3-dihydro-1H-benzo[d]imidazol-1-yl)methyl)cyclohexyl) nicotinamide] |
| < 300 nM | Cn1ccc(-c2cncc(-n3c(=O)n(C[C@H]4CC[C@H](NC(=O)c5cc(Cl)cnc5C(F)F)CC4)c4ccccc43)c2)n1 [Example 701, 5-chloro-2-(difluoromethyl)-N-((1r,4r)-4-((3-(5-(1-methyl-1H-pyrazol-3-yl)pyridin-3-yl)-2-oxo-2,3-dihydro-1H-benzo [d]imidazol-1-yl)methyl)cyclo-hexyl)nicotinamide] |
| < 300 nM | Cn1ccc(-c2cc(-n3c(=O)n(C[C@H]4CC[C@H](NC(=O)c5cc(Cl)cnc5C(F)F)CC4)c4ccccc43)ccn2)n1 [Example 702, 5-chloro-2-(difluoromethyl)-N-((1r,4r)-4-((3-(2-(1-methyl-1H-pyrazol-3-yl)pyridin-4-yl)-2-oxo-2,3-dihydro-1H-benzo[d]imidazol-1-yl)methyl)cyclohexyl)nicotinamide] |
| < 300 nM | O=C(N[C@H]1CC[C@H](Cn2c(=O)n(-c3cncc(-n4cccn4)c3)c3ccccc32)CC1)c1cc(Cl)cnc1C(F)F [Example 703, N-((1r,4r)-4-((3-(5-(1H-pyrazol-1-yl)pyridin-3-yl)-2-oxo-2,3-dihydro-1H-benzo [d]imidazol-1-yl)methyl)cyclohexyl)-5-chloro-2-(difluoromethyl)nicotinamide] |
| < 300 nM | CNc1ccc(-n2c(=O)n(C[C@H]3CC[C@H](NC(=O)c4cc(Cl)cnc4C(F)(F)F)CC3)c3cc(F)ccc32)cn1 [Example 704, 5-chloro-N-((1r,4r)-4-((6-fluoro-3-(6-(methylamino)pyridin-3-yl)-2-oxo-2,3-dihydro-1H-benzo[d]imidazol-1-yl)methyl)cyclo-hexyl)-2-(trifluoromethyl) nicotinamide] |
| < 300 nM | CNc1ccc(-n2c(=O)n(C[C@H]3CC[C@H](NC(=O)c4cc(Cl)cnc4C(F)(F)F)CC3)c3ccc(F)cc32)cn1 [Example 705, 5-chloro-N-((1r,4r)-4-((5-fluoro-3-(6-(methylamino)pyridin-3-yl)-2-oxo-2,3-dihydro-1H-benzo[d]imidazol-1-yl)methyl)cyclo-hexyl)-2-(trifluoromethyl) nicotinamide] |
| < 300 nM | O=C(N[C@H]1CC[C@H](Cn2c(=O)n(-c3ccnc(N4CCCC4=O)c3)c3ccccc32)CC1)c1cc(Cl)cnc1C(F)F [Example 706, 5-chloro-2-(difluoromethyl)-N-((1r,4r)-4-((2-oxo-3-(2-(2-oxopyrrolidin-1-yl)pyridin-4-yl)-2,3-dihydro-1H-benzo[d]imidazol-1-yl)methyl)cyclo-hexyl)nicotinamide] |
| < 300 nM | CN1CCN(c2cc(-n3c(=O)n(C[C@H]4CC[C@H](NC(=O)c5cc(Cl)cnc5C(F)F)CC4)c4ccccc43)ccn2)C1=O [Example 707, 5-chloro-2-(difluoromethyl)-N-((1r,4r)-4-((3-(2-(3-methyl-2-oxoimidazolidin-1-yl)pyridin-4-yl)-2-oxo-2,3-dihydro-1H-benzo[d]imidazol-1-yl)methyl)cyclohexyl) nicotinamide] |
| < 300 nM | Cc1cc2cc(-n3c(=O)n(C[C@H]4CC[C@H](NC(=O)c5cc(Cl)cnc5C(F)F)CC4)c4cccnc43)cnc2n1C [Example 708, 5-chloro-2-(difluoromethyl)-N-((1r,4r)-4-((3-(1,2-dimethyl-1H-pyrrolo[2,3-b]pyridin-5-yl)-2-oxo-2,3-dihydro-1H-imidazo[4,5-b]pyridin-1-yl)methyl)cyclohexyl)nicotinamide] |
| < 300 nM | O=C(N[C@H]1CC[C@H](Cn2c(=O)n(-c3cnc4[nH]c(CO)cc4c3)c3ccccc32)CC1)c1cc(Cl)cnc1C(F)F [Example 709, 5-chloro-2-(difluoromethyl)-N-((1r,4r)-4-((3-(2-(hydroxymethyl)-1H-pyrrolo[2,3-b]pyridin-5-yl)-2-oxo-2,3-dihydro-1H-benzo[d]imidazol-1-yl)methyl)cyclohexyl)nicotinamide] |
| < 300 nM | COc1ccc(-n2c(=O)n(C[C@H]3CC[C@H](NC(=O)c4cc(Cl)cnc4C(F)F)CC3)c3cccnc32)cc1F [Example 710, 5-chloro-2-(difluoromethyl)-N-((1r,4r)-4-((3-(3-fluoro-4-methoxyphenyl)-2-oxo-2,3-dihydro-1H-imidazo[4,5-b]pyridin-1-yl)methyl)cyclo-hexyl)nicotinamide] |
| < 300 nM | O=C(N[C@H]1CC[C@H](Cn2c(=O)n(-c3ccc(OCCO)nc3)c3ccc(F)cc32)CC1)c1cc(Cl)cnc1C(F)F [Example 712, 5-chloro-2-(difluoromethyl)-N-((1r,4r)-4-((6-fluoro-3-(6-(2-hydroxyethoxy)pyridin-3-yl)-2-oxo-2,3-dihydro-1H-benzo[d]imidazol-1-yl)methyl)cyclohexyl)nicotinamide] |
| < 300 nM | O=C(N[C@H]1CC[C@H](Cn2c(=O)n(-c3ccc(NCCO)nc3)c3ccc(F)cc32)CC1)c1cc(Cl)cnc1C(F)F [Example 713, 5-chloro-2-(difluoromethyl)-N-((1r,4r)-4-((6-fluoro-3-(6-((2-hydroxyethyl)amino)pyridin-3-yl)-2-oxo-2,3-di-hydro-1H-benzo[d]imidazol-1-yl)methyl)cyclohexyl) nicotinamide] |
| < 300 nM | O=C(N[C@H]1CC[C@H](Cn2c(=O)n(-c3ccc(NCCO)cn3)c3ccccc32)CC1)c1cc(Cl)cnc1C(F)F [Example 715, 5-chloro-2-(difluoromethyl)-N-((1r,4r)-4-((3-(5-((2-hydroxyethyl)amino)pyridin-2-yl)-2-oxo-2,3-dihydro-1H-benzo[d]imidazol-1-yl)methyl)cyclohexyl)nicotinamide] |
| < 300 nM | O=C(N[C@H]1CC[C@H](Cn2c(=O)n(-c3ccc(N4CCNC4=O)cn3)c3ccccc32)CC1)c1cc(Cl)cnc1C(F)F [Example 717, 5-chloro-2-(difluoromethyl)-N-((1r,4r)-4-((2-oxo-3-(5-(2-oxoimidazolidin-1-yl)pyridin-2-yl)-2,3-dihydro-1H-benzo [d]imidazol-1-yl)methyl)cyclo-hexyl)nicotinamide] |
| < 300 nM | O=C(N[C@H]1CC[C@H](Cn2c(=O)n(-c3cc(F)ccc3Cl)c3cnccc32)CC1)c1cc(Cl)cnc1C(F)F [Example 718, 5-chloro-N-((1r,4r)-4-((3-(2-chloro-5-fluorophenyl)-2-oxo-2,3-dihydro-1H-imidazo[4,5-c]pyridin-1-yl)methyl)cyclo-hexyl)-2-(difluoromethyl) nicotinamide] |
